# Laboratory results published in PubChem BioAssay AID1963959 (Molecular Pharmacology Branch, DTP, NCI, 2024).
# Tested on: T-47D spheroids with HUVEC/MSC, viability
# Test: Anticancer human tumor T-47D cell line growth inhibition [PI3K];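 further: spheroids exposed to agents for seven days before reading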;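 on viability, T/C: percent of DMSO vehicle control luminescence so 100% = untreated growth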
# Conditions: for IC50: curve of first compound; for viability, T/C: stronger effect = lower value
# In short: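 Tumor cells were combined with HUVEC and MSCs into spheroids, then dosed with PI3K-inhibitor combinations over half-log ranges capped near clinical Cmax or 10 microM.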
# [1] = second compound 0.0316 µM, first compound 0.0316 µM
# [2] = second compound 0.0316 µM, first compound 0.1 µM
# [3] = second compound 0.0316 µM, first compound 0.316 µM
# [4] = second compound 0.0316 µM, first compound 1 µM
# [5] = second compound 0.0316 µM, first compound 3.16 µM
# [6] = second compound 0.0316 µM, first compound 10 µM
# [7] = second compound 0.1 µM, first compound 0.0316 µM
# [8] = second compound 0.1 µM, first compound 0.1 µM
# [9] = second compound 0.1 µM, first compound 0.316 µM
# [10] = second compound 0.1 µM, first compound 1 µM
# [11] = second compound 0.1 µM, first compound 3.16 µM
# [12] = second compound 0.1 µM, first compound 10 µM
# [13] = second compound 0.316 µM, first compound 0.0316 µM
# [14] = second compound 0.316 µM, first compound 0.1 µM
# [15] = second compound 0.316 µM, first compound 0.316 µM
# [16] = second compound 0.316 µM, first compound 1 µM
# [17] = second compound 0.316 µM, first compound 3.16 µM
# [18] = second compound 0.316 µM, first compound 10 µM
# [19] = second compound 1 µM, first compound 0.0316 µM
# [20] = second compound 1 µM, first compound 0.1 µM
# [21] = second compound 1 µM, first compound 0.316 µM
# [22] = second compound 1 µM, first compound 1 µM
# [23] = second compound 1 µM, first compound 3.16 µM
# [24] = second compound 1 µM, first compound 10 µM
# [25] = second compound 3.16 µM, first compound 0.0316 µM
# [26] = second compound 3.16 µM, first compound 0.1 µM
# [27] = second compound 3.16 µM, first compound 0.316 µM
# [28] = second compound 3.16 µM, first compound 1 µM
# [29] = second compound 3.16 µM, first compound 3.16 µM
# [30] = second compound 3.16 µM, first compound 10 µM
# [31] = second compound 10 µM, first compound 0.0316 µM
# [32] = second compound 10 µM, first compound 0.1 µM
# [33] = second compound 10 µM, first compound 0.316 µM
# [34] = second compound 10 µM, first compound 1 µM
# [35] = second compound 10 µM, first compound 3.16 µM
# [36] = second compound 10 µM, first compound 10 µM
structure (smiles),measurement,setting,value
C#Cc1c(F)ccc2cc(O)cc(-c3ncc4c(N5CC6CCC(C5)N6)nc(OCC56CCCN5CC(F)C6)nc4c3F)c12 (stereo not given) + Cc1nc(NC(=O)N2CCCC2C(N)=O)sc1-c1ccnc(C(C)(C)C(F)(F)F)c1,IC50,second compound 0.0316 µM,> 10 µM
same,IC50,second compound 0.1 µM,> 10 µM
same,IC50,second compound 0.316 µM,> 10 µM
same,IC50,second compound 1 µM,> 10 µM
same,IC50,second compound 3.16 µM,> 10 µM
same,IC50,second compound 10 µM,< 0.0316 µM
same,"viability, T/C",[1],94.8%
same,"viability, T/C",[2],91.4%
same,"viability, T/C",[3],99%
same,"viability, T/C",[4],87.8%
same,"viability, T/C",[5],99.6%
same,"viability, T/C",[6],74.8%
same,"viability, T/C",[7],98.8%
same,"viability, T/C",[8],72.2%
same,"viability, T/C",[9],73.4%
same,"viability, T/C",[10],80.1%
same,"viability, T/C",[11],103%
same,"viability, T/C",[12],89.4%
same,"viability, T/C",[13],90.5%
same,"viability, T/C",[14],71.2%
same,"viability, T/C",[15],80.3%
same,"viability, T/C",[16],97.8%
same,"viability, T/C",[17],86%
same,"viability, T/C",[18],84.5%
same,"viability, T/C",[19],74.2%
same,"viability, T/C",[20],84.7%
same,"viability, T/C",[21],69.5%
same,"viability, T/C",[22],82.7%
same,"viability, T/C",[23],82.8%
same,"viability, T/C",[24],77.8%
same,"viability, T/C",[25],63.4%
same,"viability, T/C",[26],65.7%
same,"viability, T/C",[27],61.1%
same,"viability, T/C",[28],54%
same,"viability, T/C",[29],54.2%
same,"viability, T/C",[30],60.8%
same,"viability, T/C",[31],38.4%
same,"viability, T/C",[32],40.4%
same,"viability, T/C",[33],40.8%
same,"viability, T/C",[34],31.7%
same,"viability, T/C",[35],33%
same,"viability, T/C",[36],40.1%
C=CC(=O)N1CCN(c2nc(=O)n(-c3c(C)ccnc3C(C)C)c3nc(-c4c(O)cccc4F)c(F)cc23)C(C)C1 (stereo not given) + Cc1nc(NC(=O)N2CCCC2C(N)=O)sc1-c1ccnc(C(C)(C)C(F)(F)F)c1,IC50,second compound 0.0316 µM,> 10 µM
same,IC50,second compound 0.1 µM,> 10 µM
same,IC50,second compound 0.316 µM,> 10 µM
same,IC50,second compound 1 µM,> 10 µM
same,IC50,second compound 3.16 µM,> 10 µM
same,IC50,second compound 10 µM,< 0.0316 µM
same,"viability, T/C",[1],112%
same,"viability, T/C",[2],92.4%
same,"viability, T/C",[3],102%
same,"viability, T/C",[4],84.8%
same,"viability, T/C",[5],88.8%
same,"viability, T/C",[6],98.5%
same,"viability, T/C",[7],105%
same,"viability, T/C",[8],89.7%
same,"viability, T/C",[9],97.2%
same,"viability, T/C",[10],77.8%
same,"viability, T/C",[11],116%
same,"viability, T/C",[12],106%
same,"viability, T/C",[13],83.8%
same,"viability, T/C",[14],96%
same,"viability, T/C",[15],86.7%
same,"viability, T/C",[16],99%
same,"viability, T/C",[17],91.5%
same,"viability, T/C",[18],99.4%
same,"viability, T/C",[19],96.1%
same,"viability, T/C",[20],98%
same,"viability, T/C",[21],84.1%
same,"viability, T/C",[22],100%
same,"viability, T/C",[23],99.4%
same,"viability, T/C",[24],101%
same,"viability, T/C",[25],65.1%
same,"viability, T/C",[26],77.5%
same,"viability, T/C",[27],77.9%
same,"viability, T/C",[28],75.9%
same,"viability, T/C",[29],85.4%
same,"viability, T/C",[30],95.3%
same,"viability, T/C",[31],37%
same,"viability, T/C",[32],36.7%
same,"viability, T/C",[33],41.2%
same,"viability, T/C",[34],45%
same,"viability, T/C",[35],53%
same,"viability, T/C",[36],59.5%
CC(Cn1ccc(-c2ccc(C#N)c(Cl)c2)n1)NC(=O)c1cc(C(C)O)[nH]n1 (stereo not given) + Cc1nc(NC(=O)N2CCCC2C(N)=O)sc1-c1ccnc(C(C)(C)C(F)(F)F)c1,IC50,second compound 0.0316 µM,> 10 µM
same,IC50,second compound 0.1 µM,> 10 µM
same,IC50,second compound 0.316 µM,> 10 µM
same,IC50,second compound 1 µM,> 10 µM
same,IC50,second compound 3.16 µM,> 10 µM
same,IC50,second compound 10 µM,< 0.0316 µM
same,"viability, T/C",[1],97%
same,"viability, T/C",[2],103%
same,"viability, T/C",[3],118%
same,"viability, T/C",[4],84%
same,"viability, T/C",[5],88.8%
same,"viability, T/C",[6],63.6%
same,"viability, T/C",[7],109%
same,"viability, T/C",[8],88.2%
same,"viability, T/C",[9],91.8%
same,"viability, T/C",[10],90.9%
same,"viability, T/C",[11],79.5%
same,"viability, T/C",[12],67.9%
same,"viability, T/C",[13],100%
same,"viability, T/C",[14],101%
same,"viability, T/C",[15],93.8%
same,"viability, T/C",[16],96.8%
same,"viability, T/C",[17],85.7%
same,"viability, T/C",[18],66.6%
same,"viability, T/C",[19],95.5%
same,"viability, T/C",[20],95.8%
same,"viability, T/C",[21],84.4%
same,"viability, T/C",[22],87.6%
same,"viability, T/C",[23],85%
same,"viability, T/C",[24],63.2%
same,"viability, T/C",[25],82.8%
same,"viability, T/C",[26],73.4%
same,"viability, T/C",[27],61%
same,"viability, T/C",[28],65.8%
same,"viability, T/C",[29],63.1%
same,"viability, T/C",[30],50.4%
same,"viability, T/C",[31],36%
same,"viability, T/C",[32],42.3%
same,"viability, T/C",[33],44.2%
same,"viability, T/C",[34],45.5%
same,"viability, T/C",[35],36.8%
same,"viability, T/C",[36],37.9%
CC1(C)CCC(Nc2ncc(C(F)(F)F)c(-c3c[nH]c4c(P(C)(C)=O)c(C#N)ccc34)n2)CN1 (stereo not given) + Cc1nc(NC(=O)N2CCCC2C(N)=O)sc1-c1ccnc(C(C)(C)C(F)(F)F)c1,IC50,second compound 0.0316 µM,8.08 µM
same,IC50,second compound 0.1 µM,> 10 µM
same,IC50,second compound 0.316 µM,4.92 µM
same,IC50,second compound 1 µM,3.39 µM
same,IC50,second compound 3.16 µM,< 0.0316 µM
same,IC50,second compound 10 µM,< 0.0316 µM
same,"viability, T/C",[1],73.6%
same,"viability, T/C",[2],64.5%
same,"viability, T/C",[3],73.7%
same,"viability, T/C",[4],72.4%
same,"viability, T/C",[5],72.2%
same,"viability, T/C",[6],45.1%
same,"viability, T/C",[7],68.7%
same,"viability, T/C",[8],65.8%
same,"viability, T/C",[9],65.6%
same,"viability, T/C",[10],64.6%
same,"viability, T/C",[11],70.9%
same,"viability, T/C",[12],42.9%
same,"viability, T/C",[13],67%
same,"viability, T/C",[14],57.7%
same,"viability, T/C",[15],55%
same,"viability, T/C",[16],55.7%
same,"viability, T/C",[17],59.2%
same,"viability, T/C",[18],35.9%
same,"viability, T/C",[19],56.7%
same,"viability, T/C",[20],58.1%
same,"viability, T/C",[21],45.2%
same,"viability, T/C",[22],44.2%
same,"viability, T/C",[23],54.4%
same,"viability, T/C",[24],22.7%
same,"viability, T/C",[25],47.3%
same,"viability, T/C",[26],41.3%
same,"viability, T/C",[27],42.3%
same,"viability, T/C",[28],38.6%
same,"viability, T/C",[29],40.1%
same,"viability, T/C",[30],8.96%
same,"viability, T/C",[31],30.3%
same,"viability, T/C",[32],29.4%
same,"viability, T/C",[33],26.6%
same,"viability, T/C",[34],27.5%
same,"viability, T/C",[35],20.8%
same,"viability, T/C",[36],3.07%
Cn1nccc1Nc1nccc(-c2ccn(C(CO)c3ccc(Cl)c(F)c3)c(=O)c2)n1 (stereo not given) + Cc1nc(NC(=O)N2CCCC2C(N)=O)sc1-c1ccnc(C(C)(C)C(F)(F)F)c1,IC50,second compound 0.0316 µM,> 10 µM
same,IC50,second compound 0.1 µM,> 10 µM
same,IC50,second compound 0.316 µM,> 10 µM
same,IC50,second compound 1 µM,> 10 µM
same,IC50,second compound 3.16 µM,> 10 µM
same,IC50,second compound 10 µM,< 0.0316 µM
same,"viability, T/C",[1],99.1%
same,"viability, T/C",[2],81.6%
same,"viability, T/C",[3],92.6%
same,"viability, T/C",[4],102%
same,"viability, T/C",[5],103%
same,"viability, T/C",[6],96.3%
same,"viability, T/C",[7],111%
same,"viability, T/C",[8],95.2%
same,"viability, T/C",[9],98.8%
same,"viability, T/C",[10],89.4%
same,"viability, T/C",[11],117%
same,"viability, T/C",[12],85.7%
same,"viability, T/C",[13],86.8%
same,"viability, T/C",[14],93.3%
same,"viability, T/C",[15],97.6%
same,"viability, T/C",[16],101%
same,"viability, T/C",[17],104%
same,"viability, T/C",[18],92.4%
same,"viability, T/C",[19],85.4%
same,"viability, T/C",[20],92.7%
same,"viability, T/C",[21],86.6%
same,"viability, T/C",[22],88%
same,"viability, T/C",[23],110%
same,"viability, T/C",[24],82%
same,"viability, T/C",[25],65.9%
same,"viability, T/C",[26],70.8%
same,"viability, T/C",[27],73.5%
same,"viability, T/C",[28],83.3%
same,"viability, T/C",[29],76.9%
same,"viability, T/C",[30],70.8%
same,"viability, T/C",[31],39.5%
same,"viability, T/C",[32],39.9%
same,"viability, T/C",[33],41.7%
same,"viability, T/C",[34],42.9%
same,"viability, T/C",[35],46.4%
same,"viability, T/C",[36],48.7%
